Consider 19 compounds from PubChem BioAssay (NCI).

Usually GI50 stands for the concentration at which growth is held to half of that of the control. In general, TGI refers to the concentration at which net growth stops. Low values mean greater sensitivity of the cells, high ones lower sensitivity of the cells.

Among the test systems are DU-145 prostate; HS 578T breast; IGROV1 ovarian; MDA-MB-435; OVCAR-8 ovarian; PC-3 prostate.
What all share (test): DTP human tumour cell line panel, 48 h

Several values for one entry are separate records, joined by “and”; a condition that tells them apart may be missing. Identical values can stand only once.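 Exposure lasted 48 hours, with cells grown in 96-well plates and compounds tested at five concentrations. GI50 = concentration required for 50% inhibition of growth. The concentration for full growth arrest is given as TGI.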

In the case of `Nc1ccn(C=C=CCO)c(=O)n1`, the GI50 in the assay with DU-145 prostate, in the assay on HS 578T breast, in the assay with IGROV1 ovarian, with MDA-MB-435 and with PC-3 prostate was more than 1000 µM throughout. In addition, the total growth inhibition concentration (TGI) in the assay on DU-145 prostate, with HS 578T breast, in the assay with IGROV1 ovarian, in the assay on MDA-MB-435, with OVCAR-8 ovarian and in the assay with PC-3 prostate was more than 1000 µM throughout.
Take `O=[N+]([O-])c1ccc(N/N=C\c2cc(Cl)ccc2O)nc1`: the GI50 with DU-145 prostate was 1.22 µM; with HS 578T breast, 7.33 µM; in the assay with IGROV1 ovarian it was 1.2 µM; in the assay with MDA-MB-435 it was 1.76 µM; in the assay with OVCAR-8 ovarian, 0.97 µM; in the assay with PC-3 prostate it was 0.747 µM. Besides, the TGI in the assay on DU-145 prostate was 13.1 µM; in the assay with HS 578T breast it was more than 100 µM; in the assay on IGROV1 ovarian it was 4.69 µM; with MDA-MB-435, more than 100 µM; in the assay with OVCAR-8 ovarian, 14.1 µM; in the assay on PC-3 prostate, 55.6 µM.
For the compound `C[C@H]1[C@H](OC(=O)CCC(=O)O)O[C@@H]2O[C@]3(C)CC[C@H]4[C@H](C)CC[C@@H]1[C@@]24OO3`, the GI50 in the assay on DU-145 prostate is 6.48 µM; with HS 578T breast, 0.986 µM; in the assay on IGROV1 ovarian, 1.17 µM; with MDA-MB-435, 0.335 µM; in the assay on OVCAR-8 ovarian it was 0.445 µM; in the assay with PC-3 prostate it was 0.0886 µM. Moreover, the TGI with DU-145 prostate was 20.1 µM; with HS 578T breast, 36.9 µM; in the assay on IGROV1 ovarian, 5.91 µM; in the assay on MDA-MB-435, 13.5 µM; in the assay with OVCAR-8 ovarian it was more than 46.4 µM; in the assay with PC-3 prostate, more than 100 µM.
Regarding `CC1(C)N=C(N)N=C(N)N1c1cccc(/C=C/C=C/c2cccc([N+](=O)[O-])c2)c1`, the GI50 with DU-145 prostate is 7.5 µM; in the assay on HS 578T breast, 12.9 µM; in the assay on IGROV1 ovarian it was 1.18 µM; in the assay on MDA-MB-435 it was 2.68 µM; in the assay with OVCAR-8 ovarian, 13.8 µM; with PC-3 prostate, 0.448 µM. In addition, the TGI with DU-145 prostate came to 20.2 µM; with HS 578T breast, 34.7 µM; with IGROV1 ovarian it was 13.7 µM; in the assay on MDA-MB-435 it was 15.2 µM; in the assay with OVCAR-8 ovarian, 30 µM; in the assay on PC-3 prostate, 11.8 µM.
With `COc1cc(CCc2cc(NC(=O)c3ccc(N4C[C@@H](C)N[C@@H](C)C4)cc3)n[nH]2)cc(OC)c1`, the GI50 in the assay with DU-145 prostate is 7.62 µM and 6.09 µM; in the assay with HS 578T breast, 1.12 µM and 2.44 µM; in the assay on IGROV1 ovarian, 2.93 µM and 4.59 µM; with MDA-MB-435, 6.15 µM and 3.48 µM; in the assay on OVCAR-8 ovarian it was > 10 µM and 9.01 µM; in the assay on PC-3 prostate it was > 10 µM and 6.92 µM. Further, the concentration for total growth inhibition (TGI) in the assay with DU-145 prostate is > 10 µM and 18.5 µM; in the assay with HS 578T breast it was > 10 µM and 14.4 µM; with IGROV1 ovarian, > 10 µM and 19.8 µM; in the assay on MDA-MB-435 it was > 10 µM and 14.2 µM; in the assay with OVCAR-8 ovarian, > 10 µM and 25.7 µM; with PC-3 prostate, > 10 µM and 23.9 µM.
Regarding `CCCCCCCCCCCCCCCCCCNC(=O)[C@H]1CSC(c2ccc(OC)c(F)c2)N1` (some centres not stated), the GI50 was 24.2 µM with DU-145 prostate; 4.29 µM in the assay with HS 578T breast; 6.65 µM in the assay on IGROV1 ovarian; 1.22 µM in the assay with MDA-MB-435; 2.56 µM with OVCAR-8 ovarian; 6.09 µM in the assay with PC-3 prostate. Also, the total growth inhibition concentration (TGI) with DU-145 prostate was more than 54.6 µM; in the assay with HS 578T breast it was 20.3 µM; in the assay on IGROV1 ovarian it was 29.1 µM; in the assay with MDA-MB-435 it was 2.91 µM; with OVCAR-8 ovarian it was 11.4 µM; with PC-3 prostate, 28.3 µM.
Turning to `COc1cc2c(cc1OC)C(=O)C(Br)CC2` (configuration not stated), the GI50 in the assay on DU-145 prostate was 4.61 µM; with HS 578T breast, 7.48 µM; in the assay on IGROV1 ovarian, 6.23 µM; in the assay on MDA-MB-435, 2.87 µM; in the assay with OVCAR-8 ovarian, 3.28 µM; with PC-3 prostate, 8.8 µM. Besides, the TGI was found to be 16.2 µM in the assay on DU-145 prostate; 37.4 µM with HS 578T breast; 19.7 µM with IGROV1 ovarian; 10.4 µM in the assay with MDA-MB-435; 11.7 µM in the assay on OVCAR-8 ovarian; 23.1 µM with PC-3 prostate.
For the compound `O=C(CCCc1c[nH]c2ccccc12)NC1CC(=O)c2c(Br)sc(Br)c21` (configuration not stated), the GI50 in the assay on DU-145 prostate is 23.5 µM; in the assay on HS 578T breast it was 6.44 µM; in the assay with IGROV1 ovarian it was 9.05 µM; with MDA-MB-435 it was 17.8 µM; with OVCAR-8 ovarian it was 9.41 µM; with PC-3 prostate, 21 µM. The TGI with DU-145 prostate was more than 100 µM; in the assay with HS 578T breast it was 51.3 µM; with IGROV1 ovarian, 40.5 µM; in the assay with MDA-MB-435 it was 57.3 µM; in the assay on OVCAR-8 ovarian it was more than 100 µM; with PC-3 prostate, 75.7 µM.
Turning to `COc1cc(C(=O)O)c([N+](=O)[O-])c(OC)c1OC`, the concentration for total growth inhibition (TGI) with DU-145 prostate, in the assay on HS 578T breast, with IGROV1 ovarian, in the assay with MDA-MB-435, in the assay on OVCAR-8 ovarian and with PC-3 prostate was more than 100 µM throughout.
With `CC(Cc1ccc(Cl)cc1Cl)NO` (configuration not stated), the TGI in the assay with DU-145 prostate, in the assay with HS 578T breast, with IGROV1 ovarian, in the assay on MDA-MB-435, in the assay on OVCAR-8 ovarian and with PC-3 prostate was more than 100 µM each time.
`COc1cccc(NC(=O)c2sc3nc4c(cc3c2N)CCCC4)c1`: the GI50 in the assay on DU-145 prostate was 0.542 µM; in the assay with HS 578T breast it was 0.75 µM; with IGROV1 ovarian it was 4.1 µM; in the assay with MDA-MB-435 it was 0.15 µM; in the assay on OVCAR-8 ovarian, 2.58 µM; in the assay with PC-3 prostate, 0.504 µM. The TGI with DU-145 prostate is 56.1 µM; in the assay with HS 578T breast, 54.6 µM; with IGROV1 ovarian, more than 100 µM; in the assay on MDA-MB-435 it was 0.44 µM; in the assay on OVCAR-8 ovarian, more than 100 µM; with PC-3 prostate, more than 100 µM.
On to `Cc1ccc(S(=O)(=O)N/N=C/C(Br)=C(/Br)C(=O)O)cc1`, for which the concentration for total growth inhibition (TGI) worked out at 26.9 µM in the assay on DU-145 prostate; 45.2 µM with HS 578T breast; 34.7 µM in the assay with IGROV1 ovarian; 18.3 µM with MDA-MB-435; 9.93 µM in the assay on OVCAR-8 ovarian; 29.3 µM in the assay with PC-3 prostate.
Consider `COC(=O)c1cnc(=O)n(C2CC(O)C(CO)O2)c1` (configuration not stated), for which the GI50 was more than 100 µM in the assay with DU-145 prostate; more than 100 µM in the assay with HS 578T breast; more than 100 µM in the assay on IGROV1 ovarian; more than 100 µM with MDA-MB-435; more than 100 µM in the assay on OVCAR-8 ovarian; 0.811 µM in the assay on PC-3 prostate. Moreover, the TGI in the assay with DU-145 prostate, with HS 578T breast, with IGROV1 ovarian, in the assay with MDA-MB-435, in the assay with OVCAR-8 ovarian and with PC-3 prostate was more than 100 µM each time.
As for `O=[N+]([O-])c1ccc(Sc2ncccn2)c([N+](=O)[O-])c1`, the GI50 in the assay on DU-145 prostate is 3.71 µM; with HS 578T breast, 3.83 µM; with IGROV1 ovarian, 1.27 µM; with MDA-MB-435, 3.16 µM; in the assay on OVCAR-8 ovarian, 4.33 µM; in the assay on PC-3 prostate, 2.13 µM. For the same compound, the TGI with DU-145 prostate is 12.7 µM; in the assay with HS 578T breast, 18 µM; in the assay on IGROV1 ovarian, 13.6 µM; in the assay on MDA-MB-435, 13.3 µM; in the assay with OVCAR-8 ovarian, 14 µM; in the assay with PC-3 prostate, 15.1 µM.
On to `Cn1cc(-c2ccc(=O)n(Cc3cccc(-c4ncc(OCCN5CCOCC5)cn4)c3)n2)cn1`, for which the GI50 was more than 100 µM in the assay on DU-145 prostate; more than 100 µM in the assay with HS 578T breast; more than 76.6 µM in the assay on IGROV1 ovarian; 61.8 µM with MDA-MB-435; 36.5 µM in the assay with OVCAR-8 ovarian; 49.1 µM in the assay on PC-3 prostate. The total growth inhibition concentration (TGI) with DU-145 prostate, with HS 578T breast, with IGROV1 ovarian, with MDA-MB-435, with OVCAR-8 ovarian and in the assay with PC-3 prostate was more than 100 µM each time.
In the case of `COc1cc[nH]c1/C=C1\C(=O)Nc2ccc(F)c(C#C[C@@H](O)[C@@H](N)[C@@H](C)O)c21`, the GI50 in the assay with DU-145 prostate is 0.529 µM; in the assay with HS 578T breast it was 0.381 µM; with IGROV1 ovarian, 0.618 µM; in the assay on MDA-MB-435 it was 0.561 µM; in the assay with OVCAR-8 ovarian it was 0.843 µM; with PC-3 prostate, 0.369 µM. For the same compound, the TGI in the assay on DU-145 prostate was 3.5 µM; in the assay on HS 578T breast it was 1.68 µM; in the assay on IGROV1 ovarian, 5.24 µM; in the assay with MDA-MB-435, 2.83 µM; with OVCAR-8 ovarian it was 5.15 µM; with PC-3 prostate, 1.6 µM.
Turning to `NC(N)=NC(CC(=O)O)c1ccccc1` (configuration not stated), the TGI in the assay with DU-145 prostate, in the assay on HS 578T breast, with IGROV1 ovarian, in the assay on MDA-MB-435, in the assay on OVCAR-8 ovarian and with PC-3 prostate was more than 100 µM each time.
For `CCCCCCCCCCCCc1ccc(C(=O)/C=C/C(=O)O)cc1`, the GI50 in the assay with DU-145 prostate was 8.15 µM; with HS 578T breast, 7.61 µM; in the assay with IGROV1 ovarian, 1.95 µM; in the assay on MDA-MB-435, 3.05 µM; in the assay with OVCAR-8 ovarian it was 3.44 µM; in the assay with PC-3 prostate it was 8.12 µM. For the same compound, the total growth inhibition concentration (TGI) in the assay on DU-145 prostate worked out at 20.9 µM; with HS 578T breast, 42.1 µM; with IGROV1 ovarian, 3.86 µM; in the assay with MDA-MB-435, 11.2 µM; with OVCAR-8 ovarian, 12.9 µM; in the assay on PC-3 prostate, 26.6 µM.
Turning to `COc1ccc(-c2cc(-c3ccc(Nc4nc(Nc5ccc(Cl)cc5)nc(Nc5ccc(Cl)cc5)n4)cc3)nc(N)c2C#N)cc1`, the GI50 is 3.91 µM in the assay with DU-145 prostate; 1.48 µM in the assay on HS 578T breast; 2.25 µM in the assay on IGROV1 ovarian; 2.22 µM in the assay on MDA-MB-435; 2.12 µM in the assay with OVCAR-8 ovarian; 0.982 µM with PC-3 prostate. Besides, the TGI with DU-145 prostate was 17 µM; in the assay on HS 578T breast it was 5.68 µM; with IGROV1 ovarian, 5.88 µM; in the assay with MDA-MB-435, 7.53 µM; with OVCAR-8 ovarian, more than 51.2 µM.
